How the values were obtained:
[1] = target: factor D (Homo sapiens, UniProt P00746); conditions: cited from earlier work
[2] = target: human C1q (Homo sapiens, UniProt P02745+P02746+P02747); assay: ELISA for C1q binding
Procedure: Ninety-six-well plates (Nunc, Roskilde, Denmark) were coated with serial dilution of the Abs (6.0-0.09 mg/ml) and incubated overnight at 4° C. followed by washing three times with PBS/Tween (pH 7.4). The wells were blocked with 4% skimmed milk (Neogen Europe, Auchincruive, U.K.) for 1 h at room temperature and then washed in PBS/Tween (pH 6.0). Purified hFcRn-GST or pFcRn-GST (1 mg/ml) were diluted in 4% skimmed milk in PBS/Tween (pH 6.0) and preincubated with an HRP-conjugated anti-GST Ab (GE Healthcare U.K., Buckinghamshire, U.K.) diluted 1:5000 and added to the wells. The plates were incubated for 1 h at room temperature and washed with PBS/Tween (pH 6.0). Bound receptor was detected by adding 100 ml of 3,39,5,59-tetramethylbenzidine substrate (Calbiochem-Novabiochem, Nottingham, U.K.). The absorbance was measured at 450 nm using a Sunrise TECAN spectrophotometer. The assay described above was also performed using PBS/Tween (pH 7.4) in all steps. The same setup was used with GST-fused versions of hFcgRI, hFcgRIIa (allotype His131), hFcgRIIb, hFcgRIIIa (allotype Val158), and hFcgRIIIb (1 mg/ml each). In addition, a biotinylated human C1q (hC1 q; 4 mg/ml) preparation was incubated with the Abs and detected using ALP-conjugated streptavidin (GE Healthcare). Absorbance was measured at 405 nm.

factor D, sequence (P00746 26-253): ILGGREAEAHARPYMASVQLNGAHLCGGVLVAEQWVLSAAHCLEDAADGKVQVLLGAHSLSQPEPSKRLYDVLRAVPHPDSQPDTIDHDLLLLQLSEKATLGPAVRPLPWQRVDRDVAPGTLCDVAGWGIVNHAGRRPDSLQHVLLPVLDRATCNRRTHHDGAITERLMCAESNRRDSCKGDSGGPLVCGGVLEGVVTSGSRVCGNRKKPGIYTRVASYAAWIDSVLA
human C1q, sequence (P02745 23-245): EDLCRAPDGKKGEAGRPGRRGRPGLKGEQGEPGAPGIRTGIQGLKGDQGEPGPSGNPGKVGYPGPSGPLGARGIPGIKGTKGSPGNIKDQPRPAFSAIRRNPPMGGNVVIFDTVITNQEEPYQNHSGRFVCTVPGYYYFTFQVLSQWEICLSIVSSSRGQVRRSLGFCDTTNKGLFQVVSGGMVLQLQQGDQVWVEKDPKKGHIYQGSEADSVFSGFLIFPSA
human C1q, sequence (P02746 28-253): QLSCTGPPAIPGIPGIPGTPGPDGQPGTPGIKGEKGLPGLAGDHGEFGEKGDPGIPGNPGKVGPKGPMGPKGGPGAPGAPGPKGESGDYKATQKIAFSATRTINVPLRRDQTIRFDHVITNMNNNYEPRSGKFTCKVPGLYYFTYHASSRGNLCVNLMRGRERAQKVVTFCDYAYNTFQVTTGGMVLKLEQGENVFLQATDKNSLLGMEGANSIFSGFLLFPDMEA
human C1q, sequence (P02747 29-245): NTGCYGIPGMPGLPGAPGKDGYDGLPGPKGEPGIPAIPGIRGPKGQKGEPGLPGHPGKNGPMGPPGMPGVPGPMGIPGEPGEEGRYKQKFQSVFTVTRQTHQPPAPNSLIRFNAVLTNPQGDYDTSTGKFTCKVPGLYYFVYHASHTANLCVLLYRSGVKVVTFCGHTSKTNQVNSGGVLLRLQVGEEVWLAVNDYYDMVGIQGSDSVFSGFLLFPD

Row | binding to C1q [2] | Compound | IC50 [1]
1 |  | N=C(N)c1cc2ccc(OC(=O)c3cccs3)cc2s1 [BCX-1470] | 0.096 µM
2 | did so in a dose-dependent manner | rituximab: humanized anti-CD20 IgG1 Ab from Roche, control for ELISA-based binding studies | 

From patent publication US20170107294A1, “ANTI-CD14 ANTIBODIES AND USES THEREOF” (Nordlandssykehuset HF, priority 2014, published 2017)
